Species: Rattus norvegicus
Experiment: Open TG-GATES - Regimen: Single
Format: toxicity, organism-based, Sprague-Dawley
Design: regimen Single, gender Male, age 6 weeks
Conditions: in vivo, ip, route intraperitoneal injection; for TP / gamma-GTP / ALP / ALT / AST / BUN / CRE / Ca / DBIL / GLC / K / LDH / RALB / TBIL / TC / TG / IP / Na / PL: tissue Plasma; for KIDNEY_L / KIDNEY_R / KIDNEY_TOTAL: tissue Kidney; for LIVER: tissue Liver
[1] = 0.3 mg/kg, 24 h, dose 300 ug/Kg, dose level Middle
[2] = 3 mg/kg, 3 h, dose 3000 ug/Kg, dose level High
[3] = 3 mg/kg, 3 h, tissue Blood, dose 3000 ug/Kg, dose level High
[4] = 3 mg/kg, 6 h, dose 3000 ug/Kg, dose level High
[5] = 3 mg/kg, 6 h, tissue Blood, dose 3000 ug/Kg, dose level High
[6] = 3 mg/kg, 9 h, dose 3000 ug/Kg, dose level High
[7] = 3 mg/kg, 9 h, tissue Blood, dose 3000 ug/Kg, dose level High
[8] = 3 mg/kg, 24 h, dose 3000 ug/Kg, dose level High
[9] = 3 mg/kg, 24 h, tissue Blood, dose 3000 ug/Kg, dose level High

## LPS
[1]
  TP: 5.9 g/dL
  gamma-GTP: 1.7 IU/L
[2]
  TERMINAL_BW: 197.5 g
  KIDNEY_L: 0.9 g
  KIDNEY_R: 0.9 g
  KIDNEY_TOTAL: 1.9 g
  LIVER: 9.2 g
  ALP: 1326.7 IU/L
  ALT: 48 IU/L
  AST: 122.3 IU/L
  BUN: 15 mg/dL
  CRE: 0.2 mg/dL
  Ca: 10 mg/dL
  DBIL: 0.0233 mg/dL
  GLC: 148.7 mg/dL
  K: 4.1 meq/L
  LDH: 229.3 IU/L
  RALB: 2.2 g/dL
  TBIL: 0.0667 mg/dL
  TC: 78.3 mg/dL
  TG: 143 mg/dL
  TP: 4.8 g/dL
  gamma-GTP: 1.7 IU/L
[3]
  Bas: 0.3%
  Eos: 0%
  Fbg: 186.3 mg/dL
  Ht: 40.6%
  Lym: 62.3%
  MCV: 66.6 fL
  Mono: 2%
  Neu: 34.7%
  PT: 17.1 s
  Plat: 83.4 x10_4/uL
  RBC: 608.7 x10_4/ul
  Ret: 9.7%
  WBC: 42.6 x10_2/uL
[4]
  TERMINAL_BW: 192.5 g
  KIDNEY_L: 1 g
  KIDNEY_R: 0.9 g
  KIDNEY_TOTAL: 1.9 g
  LIVER: 7.6 g
  ALP: 1321.7 IU/L
  ALT: 378.7 IU/L
  AST: 499.3 IU/L
  BUN: 23.3 mg/dL
  CRE: 0.2 mg/dL
  Ca: 9.5 mg/dL
  DBIL: 0.2 mg/dL
  GLC: 124.3 mg/dL
  IP: 10.4 mg/dL
  K: 4.4 meq/L
  LDH: 2239.3 IU/L
  Na: 140.3 meq/L
  PL: 156.7 mg/dL
  RALB: 2.2 g/dL
  TBIL: 0.3 mg/dL
  TC: 90 mg/dL
  TG: 87 mg/dL
  TP: 4.9 g/dL
  gamma-GTP: 2.7 IU/L
[5]
  APTT: 25.9 s
  Bas: 0%
  Eos: 1%
  Fbg: 158.3 mg/dL
  Lym: 65.3%
  MCHC: 32.8%
  MCV: 64.5 fL
  Mono: 1%
  Neu: 31.7%
  PT: 18.2 s
  Plat: 47.4 x10_4/uL
  RBC: 627.3 x10_4/ul
  Ret: 8.9%
  WBC: 21.1 x10_2/uL
[6]
  TERMINAL_BW: 188.4 g
  KIDNEY_L: 0.9 g
  KIDNEY_R: 0.9 g
  KIDNEY_TOTAL: 1.9 g
  LIVER: 7.4 g
  ALP: 1439.3 IU/L
  ALT: 320.3 IU/L
  AST: 534.3 IU/L
  BUN: 29.7 mg/dL
  CRE: 0.2 mg/dL
  Ca: 9.5 mg/dL
  DBIL: 0.2 mg/dL
  GLC: 116 mg/dL
  K: 4.6 meq/L
  LDH: 1843.3 IU/L
  Na: 138.3 meq/L
  PL: 169.7 mg/dL
  RALB: 2.1 g/dL
  TBIL: 0.4 mg/dL
  TC: 115.7 mg/dL
  TG: 117.7 mg/dL
  TP: 4.8 g/dL
  gamma-GTP: 4 IU/L
[7]
  APTT: 25 s
  Bas: 0%
  Eos: 1%
  Fbg: 180.7 mg/dL
  Ht: 41.4%
  Lym: 56%
  MCHC: 32.7%
  MCV: 64.7 fL
  Mono: 1%
  Neu: 42%
  PT: 17.9 s
  Plat: 27.3 x10_4/uL
  RBC: 641 x10_4/ul
  Ret: 8.6%
  WBC: 48.1 x10_2/uL
[8]
  TERMINAL_BW: 191.8 g
  KIDNEY_L: 0.9 g
  KIDNEY_R: 1 g
  KIDNEY_TOTAL: 1.9 g
  LIVER: 8.3 g
  ALP: 1299 IU/L
  ALT: 330.3 IU/L
  AST: 740.3 IU/L
  BUN: 31.7 mg/dL
  CRE: 0.2 mg/dL
  DBIL: 0.06 mg/dL
  GLC: 139 mg/dL
  IP: 9.4 mg/dL
  K: 4.4 meq/L
  LDH: 271.7 IU/L
  RALB: 2.2 g/dL
  TBIL: 0.2 mg/dL
  TC: 93.3 mg/dL
  TG: 45.3 mg/dL
  TP: 4.9 g/dL
  gamma-GTP: 6.7 IU/L
[9]
  APTT: 23.8 s
  Bas: 0.7%
  Eos: 1%
  Fbg: 336 mg/dL
  Hb: 12.1 g/dL
  Ht: 37.4%
  Lym: 55.3%
  MCHC: 32.4%
  MCV: 64 fL
  Mono: 2%
  Neu: 40.7%
  PT: 15.3 s
  Plat: 41.9 x10_4/uL
  RBC: 583.3 x10_4/ul
  Ret: 7.7%
  WBC: 99.6 x10_2/uL

— ChEMBL document CHEMBL3885861, “Open TG-GATES”
